How the values were obtained:
[1] = tested on: treatment-resistant MDD (TRD) patients; conditions: cited from earlier work
[2] = tested on: plasma metabolites; experiment: Untargeted metabolomic profiling of plasma, stressed mice (ketamine + CFC); conditions: prophylactic ketamine + stress
[3] = tested on: mouse models of stress; conditions: cited from earlier work
[4] = tested on: 129S6/SvEvTac mice; experiment: 3-shock contextual fear conditioning (CFC), freezing; conditions: ketamine 30 mg kg-1 i.p., single dose 1 week before 3-shock CFC; vs saline
[5] = tested on: PFC metabolites; experiment: Metabolomic profiling of PFC, non-stressed mice (ketamine, no shock)
[6] = tested on: 129S6/SvEvTac mice; experiment: Context exposure without shocks (no-shock control), freezing; conditions: ketamine 30 mg kg-1 i.p., 1 week before context exposure without shocks; vs saline
[7] = tested on: PFC metabolites; experiment: Untargeted metabolomic profiling of prefrontal cortex (PFC), stressed mice (ketamine + CFC)
[8] = tested on: plasma metabolites; experiment: Metabolomic profiling of plasma, non-stressed mice (ketamine, no shock); conditions: prophylactic ketamine, mice not administered shocks
[9] = tested on: plasma amino acid-derived neurotransmitters and precursors; experiment: Separate plasma analysis of metabolites involved in neurotransmission, stressed mice; assay type: in vivo
[10] = tested on: HPC metabolites; experiment: Untargeted metabolomic profiling of hippocampus (HPC), stressed mice (ketamine + CFC)
[11] = tested on: HPC metabolites; experiment: Metabolomic profiling of HPC, non-stressed mice (ketamine, no shock); conditions: context exposure group (no shock), following prophylactic ketamine administration
[12] = molecular target: T1, kappa-opioid receptor (KOR) (Rattus norvegicus, UniProt P34975); conditions: administered before the FPS test; cited from earlier work
T1 construct: host or cells: live rats (behavioural test)

[13] = single injection 30 mg kg-1, 1 week before a stressor
[14] = ketamine 30 mg/kg without CFC stress
[15] = PFC, CFC group, following prophylactic ketamine administration
[16] = prophylactic ketamine + stress, MetaboAnalyst 3.0
[17] = prophylactic ketamine + stress, vs saline
[18] = Plasma, CFC group, following prophylactic ketamine administration
[19] = HPC, CFC group, following prophylactic ketamine administration

T1 sequence (P34975 whole entry): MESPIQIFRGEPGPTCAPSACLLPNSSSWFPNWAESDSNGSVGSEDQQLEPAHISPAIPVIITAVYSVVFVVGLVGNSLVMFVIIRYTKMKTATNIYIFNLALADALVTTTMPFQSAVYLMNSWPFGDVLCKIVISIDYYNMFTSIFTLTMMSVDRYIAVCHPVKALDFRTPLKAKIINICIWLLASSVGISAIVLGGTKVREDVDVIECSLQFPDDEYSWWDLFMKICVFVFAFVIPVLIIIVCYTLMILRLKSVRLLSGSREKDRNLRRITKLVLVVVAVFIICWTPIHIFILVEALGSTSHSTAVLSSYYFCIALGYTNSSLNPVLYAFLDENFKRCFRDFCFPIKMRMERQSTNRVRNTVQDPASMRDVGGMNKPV

Structure (SMILES): CNC1(c2ccccc2Cl)CCCCC1=O (racemic) [ketamine, (RS)-2-(2-chlorophenyl)-2-(methylamino)cyclohexanone]
- Persistence of antidepressant effects ([1]; following a single infusion): 1-2 weeks
- Antidepressant onset ([1]; single infusion, TRD patients): ≤ 2 h
- Pathway analysis of changed metabolites in plasma [2]: purine metabolism, pyrimidine metabolism, the citrate cycle (TCA cycle), and the pentose phosphate pathway were most significantly changed
- Ribose and ribulose phosphate (pentose phosphate pathway intermediates) in plasma [2]: significantly changed
- Purine metabolites in the plasma ([2]; vs saline): significantly increased purine metabolites
- Pyrimidine metabolites in the plasma ([2]; with the exception of 5,6-dihydrouridine): increased expression of pyrimidine metabolites
- Time window for prophylactic efficacy before a stressor ([3]; not 1 month or 1 hour before): approximately 1 week
- Duration of protection after injection [3, 13]: up to 4 weeks
- Stress-induced depressive-like behavior and social avoidance behavior [3, 13]: prevented stress-induced depressive-like behavior and social avoidance behavior
- Fear response (freezing) during context re-exposure [4]: attenuated the fear response
- Freezing behavior during CFC encoding (training) [4]: did not alter freezing behavior during CFC encoding
- Number of purine metabolites significantly altered in one hemisphere of PFC or HPC, no stress [5, 14]: 3 metabolites
- Number of pyrimidines significantly altered in one hemisphere of PFC or HPC, no stress [5, 14]: 2
- Purine metabolite changes in PFC and HPC without stress ([5]; prophylactic ketamine without stress): these changes were not observed
- Amino acid-derived neurotransmitter metabolites in brain of non-stressed mice ([5]; prophylactic ketamine, non-stressed mice): only the inhibitory neurotransmitter metabolite taurine was changed
- Freezing behavior during context exposure or re-exposure, no shocks [6]: did not alter freezing behavior during context exposure or re-exposure
- D-Serine (Ser) level, change [7, 15]: Decrease
- Glycine (Gly) level, change [7, 15]: Decrease
- L-Tyrosine (Tyr) level, change [7, 15]: Decrease
- Phenylalanine (Phe) level, change [7, 15]: Decrease
- Correlation of dUDP expression in the PFC with freezing levels upon context re-exposure ([7]; mice given prophylactic ketamine prior to stress, regression analysis): positively correlated with freezing levels
- Number of metabolites changed in the same direction in both hemispheres of the PFC and HPC ([7]; of the 8 changed, prophylactic ketamine + stress): 6 metabolites
- Number of metabolites changed in both hemispheres of the PFC and HPC ([7]; prophylactic ketamine 30 mg kg-1 + CFC stressor, PFC and HPC): 8 metabolites
- Pathway analysis of changed metabolites in the PFC [7, 16]: purine metabolism; phenylalanine, tyrosine, and tryptophan metabolism; and phenylalanine metabolism are most significantly changed
- Levels of AMP and ATP in PFC, HPC and plasma ([7]; prophylactic ketamine + stress, both hemispheres of PFC and HPC, and plasma): increases levels of adenosine monophosphate (AMP) and ATP
- Inhibitory neurotransmitter metabolites in PFC and HPC ([7]; prophylactic ketamine + stress, e.g. alanine, GABA, taurine): almost all inhibitory neurotransmitter metabolites were increased
- Excitatory neurotransmitter metabolites in PFC and HPC ([7]; prophylactic ketamine + stress, e.g. serine, tyrosine, phenylalanine, exception glutamic acid): nearly all excitatory neurotransmitter metabolites were decreased
- Adenosine and guanosine metabolites in both hemispheres of PFC and HPC [7, 17]: increased
- Inosine metabolites in both hemispheres of PFC and HPC [7, 17]: decreased
- Purine or pyrimidine metabolites in plasma, no shocks [8]: no changes in purines or pyrimidine metabolites were observed
- 5-Hydroxy-L-tryptophan (5-HTP) level, change [9, 18]: Increase
- D-Serine (Ser) level, change [9, 18]: Decrease
- Gamma-aminobuytric acid (GABA) level, change [9, 18]: Decrease
- L-Glutamic acid (Glu) level, change [9, 18]: Decrease
- N-Acetyl-L-tyrosine (NALT) level, change [9, 18]: Decrease
- O-Phosphoethanolamine (PE) level, change [9, 18]: Increase
- Plasma serine and glutamic acid (excitatory neurotransmitters) ([9]; prophylactic ketamine + stress): serine and glutamic acid were decreased
- D-Alanine (Ala) level, change [10, 19]: Increase
- Gamma-aminobuytric acid (GABA) level, change [10, 19]: Increase
- L-Glutamic acid (Glu) level, change [10, 19]: Increase
- O-Phosphoethanolamine (PE) level, change [10, 19]: Increase
- Taurine (Tau) level, change [10, 19]: Increase
- Pathway analysis of changed metabolites in the HPC: further pathways [10, 16]: altered alanine, aspartate, and glutamate metabolism; glutamine and glutamate metabolism; and taurine and hypotaurine metabolism
- Pathway analysis of changed metabolites in the HPC: purine metabolism [10, 16]: purine metabolism was also significantly altered
- Taurine (Tau) level, change [11]: Increase

Structure (SMILES): Oc1ccc2c3c1O[C@H]1c4[nH]c5c(c4C[C@@]4(O)[C@@H](C2)N(CC2CC2)CC[C@]314)C[C@@]1(O)[C@H]2Cc3ccc(O)c4c3[C@@]1(CCN2CC1CC1)[C@H]5O4 [norBNI, nor-binaltorphimine]
- Conditioned fear in FPS test [12]: attenuated conditioned fear

— patent US12329726B2, “Biomarkers for efficacy of prophylactic treatments against stress-induced affective disorders” (The Trustees of Columbia University in the City of New York, priority 2017, dated 2025)
